Results taken from ChEMBL document CHEMBL4334513, “Discovery of a Potent, Selective, and Orally Available MTHFD2 Inhibitor (DS18561882) with in Vivo Antitumor Activity” (J Med Chem, 2019).
Converted amounts (≈) assume the structure as drawn. Each block holds one compound with its values, some of them ahead of it.

Columns and labels:
[1] = target: T1, Bifunctional methylenetetrahydrofolate dehydrogenase/cyclohydrolase, mitochondrial (Homo sapiens, UniProt P13995); test: Inhibition of recombinant MTHFD2 (unknown origin) using THF as substrate incubated for 30 mins in presence of NAD
T1 sequence (P13995 whole entry): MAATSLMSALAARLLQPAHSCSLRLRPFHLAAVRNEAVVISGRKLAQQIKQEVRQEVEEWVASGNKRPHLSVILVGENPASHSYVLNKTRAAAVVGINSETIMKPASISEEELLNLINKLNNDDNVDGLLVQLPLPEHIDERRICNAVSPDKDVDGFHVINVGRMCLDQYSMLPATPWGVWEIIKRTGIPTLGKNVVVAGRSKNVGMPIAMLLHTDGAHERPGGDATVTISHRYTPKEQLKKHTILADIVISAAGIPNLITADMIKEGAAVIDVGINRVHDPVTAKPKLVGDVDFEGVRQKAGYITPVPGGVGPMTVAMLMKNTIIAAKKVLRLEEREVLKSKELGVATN

[2] = target: T2, C-1-tetrahydrofolate synthase, cytoplasmic (Homo sapiens, UniProt P11586)
T2 sequence (P11586 whole entry): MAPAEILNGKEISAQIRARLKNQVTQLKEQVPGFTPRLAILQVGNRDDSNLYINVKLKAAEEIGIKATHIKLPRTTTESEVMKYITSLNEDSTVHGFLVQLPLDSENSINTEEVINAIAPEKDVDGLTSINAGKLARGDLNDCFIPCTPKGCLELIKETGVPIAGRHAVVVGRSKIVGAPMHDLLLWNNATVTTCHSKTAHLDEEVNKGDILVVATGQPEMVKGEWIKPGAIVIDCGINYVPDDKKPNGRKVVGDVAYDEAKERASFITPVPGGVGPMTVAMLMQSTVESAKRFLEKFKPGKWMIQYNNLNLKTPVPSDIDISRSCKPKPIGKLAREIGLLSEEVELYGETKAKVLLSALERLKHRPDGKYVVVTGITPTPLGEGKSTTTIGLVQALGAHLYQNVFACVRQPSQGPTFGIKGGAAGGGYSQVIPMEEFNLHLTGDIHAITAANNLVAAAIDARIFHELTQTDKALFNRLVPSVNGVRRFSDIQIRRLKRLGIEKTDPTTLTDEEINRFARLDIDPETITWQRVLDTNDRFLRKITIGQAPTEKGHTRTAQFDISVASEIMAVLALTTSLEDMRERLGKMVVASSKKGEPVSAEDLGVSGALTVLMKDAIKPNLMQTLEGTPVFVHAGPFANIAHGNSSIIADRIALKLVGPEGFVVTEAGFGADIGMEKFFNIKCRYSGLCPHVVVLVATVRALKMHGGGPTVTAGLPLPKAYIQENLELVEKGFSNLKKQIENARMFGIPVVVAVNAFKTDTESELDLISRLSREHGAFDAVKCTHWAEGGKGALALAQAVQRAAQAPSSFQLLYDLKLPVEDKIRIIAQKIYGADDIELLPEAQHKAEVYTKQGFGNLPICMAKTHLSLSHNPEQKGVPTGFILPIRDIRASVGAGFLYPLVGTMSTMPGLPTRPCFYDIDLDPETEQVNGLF
Description: Inhibition of recombinant MTHFD1 (unknown origin) using THF as substrate incubated for 30 mins in presence of NAD

[3] = Dissociation constant, acidic pKa of compound; assay type: physicochemical
[4] = Effective permeability of compound at pH 7.4 by PAMPA; assay type: ADME; conditions: read-out: Peff
[5] = Lipophilicity, logP of compound; assay type: physicochemical; conditions: octanol/water
[6] = Antiproliferative activity against human MDA-MB-231-luc-D3H2LN cells assessed as inhibition of growth after 3 days by CellTiter Glo assay; assay type: functional; conditions: 72 h
[7] = Lipophilicity, logD of compound; assay type: physicochemical; conditions: octanol/water
[8] = AUC in BALBc mouse at 10 mg/kg, po measured for 24 hrs by LC-MS/MS analysis; assay type: ADME, organism-based; conditions: in vivo
[9] = AUC in BALBc mouse at 100 mg/kg, po measured for 24 hrs by LC-MS/MS analysis; assay type: ADME, organism-based; conditions: in vivo
[10] = AUC in BALBc mouse at 30 mg/kg, po measured for 24 hrs by LC-MS/MS analysis; assay type: ADME, organism-based; conditions: in vivo
[11] = AUC in BALBc mouse at 300 mg/kg, po measured for 24 hrs by LC-MS/MS analysis; assay type: ADME, organism-based; conditions: in vivo
[12] = Cmax in BALBc mouse at 10 mg/kg, po measured for 24 hrs by LC-MS/MS analysis; assay type: ADME, organism-based; set-up: dose 10 mg/kg, route oral; conditions: in vivo
[13] = Cmax in BALBc mouse at 30 mg/kg, po measured for 24 hrs by LC-MS/MS analysis; assay type: ADME, organism-based; set-up: dose 30 mg/kg, route oral; conditions: in vivo
[14] = Cmax in BALBc mouse at 100 mg/kg, po measured for 24 hrs by LC-MS/MS analysis; assay type: ADME, organism-based; set-up: dose 100 mg/kg, route oral; conditions: in vivo
[15] = Cmax in BALBc mouse at 300 mg/kg, po measured for 24 hrs by LC-MS/MS analysis; assay type: ADME, organism-based; set-up: dose 300 mg/kg, route oral; conditions: in vivo
[16] = Half life in BALBc mouse at 10 mg/kg, po measured for 24 hrs by LC-MS/MS analysis; assay type: ADME, organism-based; conditions: in vivo
[17] = Half life in BALBc mouse at 30 mg/kg, po measured for 24 hrs by LC-MS/MS analysis; assay type: ADME, organism-based; conditions: in vivo
[18] = Half life in BALBc mouse at 100 mg/kg, po measured for 24 hrs by LC-MS/MS analysis; assay type: ADME, organism-based; conditions: in vivo
[19] = Half life in BALBc mouse at 300 mg/kg, po measured for 24 hrs by LC-MS/MS analysis; assay type: ADME, organism-based; conditions: in vivo
[20] = Effective permeability of compound at pH 5 by PAMPA; assay type: ADME; conditions: read-out: Peff
[21] = Solubility of compound in pH 1.2; assay type: physicochemical; conditions: buffer
[22] = Solubility of compound in pH 6.8; assay type: physicochemical; conditions: buffer
[23] = Metabolic stability in mouse liver microsomes assessed as remaining parent compound at 1 uM after 0.5 hrs; assay type: ADME, Microsome; conditions: read-out: Stability
[24] = Fraction unbound in mouse plasma; assay type: ADME, cell-free
[25] = Free plasma concentration in BALBc mouse at 10 to 300 mg/kg, po measured after 24 hrs by LC-MS/MS analysis; assay type: ADME, organism-based; conditions: in vivo
[26] = Antitumor activity against human MDA-MB-231-Luc cells xenografted in BALB/cAJcl nu/nu mouse assessed as tumour growth inhibition at 300 mg/kg, po administered bid for 11 days and measured every 2 to 3 days relative to control; assay type: functional; conditions: read-out: TGI
[27] = Toxicity in BALB/cAJcl nu/nu mouse xenografted with human MDA-MB-231-Luc cells assessed as body weight loss at 300 mg/kg, po administered bid for 11 days and measured every 1 to 2 days; assay type: organism-based; conditions: in vivo

SMILES: Cc1c(N2CCN(C)CC2)ccc2c3c(c(=O)oc12)CN(C(=O)c1ccc(NS(C)(=O)=O)c(Br)c1)CC3
IC50 [1]: 33 nM | pKa [3]: 6.8 | Papp [4]: > 50 ×10⁻⁶ cm/s | logP [5]: 1.9 | GI50 [6]: 1600 nM | IC50 [2]: 4200 nM

SMILES: Cc1c(N2CCN(C)CC2)ccc2c3c(c(=O)oc12)CN(C(=O)c1ccc(NS(C)(=O)=O)c(Cl)c1)CC3
pKa [3]: 6.8 | Papp [4]: 31.1 ×10⁻⁶ cm/s | logP [5]: 1.8 | GI50 [6]: 940 nM | logD [7]: 1.3 | AUC at 24 h [8]: 25.3 µg·h/mL | AUC at 24 h [9]: 306 µg·h/mL | AUC at 24 h [10]: 79.2 µg·h/mL | AUC at 24 h [11]: 929 µg·h/mL | Cmax [12]: 3660 ng/mL | Cmax [13]: 12700 ng/mL | Cmax [14]: 37900 ng/mL | Cmax [15]: 82600 ng/mL | half-life [16]: 2.73 h | half-life [17]: 3.35 h | half-life [18]: 3.51 h | half-life [19]: 2.32 h | Papp [20]: 7.2 ×10⁻⁶ cm/s | solubility [21]: 240 µg/mL (≈ 440 µM) | solubility [22]: 120 µg/mL (≈ 220 µM) | remaining at 0.5 h, 1 µM [23]: 91% | fraction unbound [24]: 0.153 | Cp(f) [25]: 0 ng/mL | inhibition in vivo at 300 mg/kg [26]: 43% | Activity [27]: Non-Toxic

SMILES: Cc1c(N2CCN(C)[C@H](C)C2)ccc2c3c(c(=O)oc12)CN(C(=O)c1ccc(NS(C)(=O)=O)c(Cl)c1)CC3
IC50 [1]: 130 nM | logP [5]: 2 | GI50 [6]: 1700 nM

SMILES: Cc1c(N2CCN(C)[C@@H](C)C2)ccc2c3c(c(=O)oc12)CN(C(=O)c1ccc(NS(C)(=O)=O)c(Cl)c1)CC3
logP [5]: 2 | GI50 [6]: 200 nM | logD [7]: 1.6

SMILES: CN1CCC(Oc2ccc3c4c(c(=O)oc3c2)CN(C(=O)c2ccc(C(=O)O)cc2)CC4)CC1
IC50 [1]: 390 nM | IC50 [2]: 27000 nM

SMILES: Cc1cc(C(=O)N2CCc3c(c(=O)oc4c(C)c(N5CCN(C)CC5)ccc34)C2)ccc1NS(C)(=O)=O
IC50 [1]: 530 nM | pKa [3]: 8.3 | Papp [4]: 23.1 ×10⁻⁶ cm/s | logP [5]: 1.8 | GI50 [6]: 7700 nM | IC50 [2]: > 30000 nM

Further lines, results first:

IC50 [1]: 320 nM | IC50 [2]: > 30000 nM
SMILES: CN1CCN(c2ccc3c4c(c(=O)oc3c2)CN(C(=O)c2ccc(C(=O)O)cc2)CC4)CC1

IC50 [1]: 3800 nM | IC50 [2]: 5400 nM
SMILES: CN(C)c1ccc(-c2ccc3c4c(c(=O)oc3c2)CN(C(=O)c2ccc(C(=O)O)cc2)CC4)cc1

IC50 [1]: 360 nM | IC50 [2]: 18700 nM
SMILES: CN(C)CCCOc1ccc2c3c(c(=O)oc2c1)CN(C(=O)c1ccc(C(=O)O)cc1)CC3

IC50 [1]: 49 nM | IC50 [2]: 5000 nM
SMILES: Cc1c(OCCN(C)C)ccc2c3c(c(=O)oc12)CN(C(=O)c1ccc(C(=O)O)cc1)CC3

IC50 [1]: > 30000 nM | IC50 [2]: > 30000 nM
SMILES: Cc1cc2c3c(c(=O)oc2cc1OCCN(C)C)CN(C(=O)c1ccc(C(=O)O)cc1)CC3

IC50 [1]: 340 nM | IC50 [2]: 23000 nM
SMILES: CN(C)Cc1ccc(-c2ccc3c4c(c(=O)oc3c2)CN(C(=O)c2ccc(C(=O)O)cc2)CC4)cc1
